{"source": "patent US20230124862A1", "about": "“BISMUTH THIOL COMPOUNDS AND COMPOSITIONS AND METHODS OF TREATING MICROBIAL CO-INFECTIONS” (Microbion Corporation, priority 2020, published 2023)", "type": "in vivo, beagle dogs", "procedure": "Once adequately conditioned to the restraint device and face-masks, the animals are individually exposed to the test article aerosols. Animals receive a single face-mask inhalation exposure in a ramp study design to test article aerosols for up to 60 min. Animal observations during and post exposure determine the tolerance of inhaled BisEDT aerosols.\nBlood Collections and Bioanalytical Analysis: Blood are collected for pharmacokinetic (PK) analysis prior to exposure, then at 4 hr (±5 min) post exposure, and again on Day 1, Day 2, Day 7 (pre- and 4 hr (±5 min)-post exposure), Day 8, Day 9, Day 10, Day 11, Day 12, Day 13, and Day 14. A total of 0.25 mL is collected at each timepoint. No PK blood is collected from the vehicle control (Group 1) animals; only animals exposed to BisEDT have blood collected for PK analysis. Collected samples are flash frozen without processing for shipment to Medpace for bioanalytical analysis. Additional blood is collected from all animals in all groups for hematology (1 mL) and clinical chemistry (1 mL) at baseline, Day 7 (pre-exposure), and again at euthanasia. Blood (2-2 mL) is collected from all animals at necropsy for coagulation analysis (d-Dimer, fibrinogen, PT, and PTT).\nFor clinical chemistry analyses, whole blood (1 mL) is placed into serum separator or clot tube and […] by centrifugation at a minimum of 1300 g at 2 to 8° C. for 10 (±1) min. Plasma samples are stored at −70 to −90° C. until analysis.\nClinical chemistry samples are analyzed on a Hitachi Modular Analytics Clinical Chemistry System (Roche Diagnostics, Indianapolis, Ind.).", "note": "Values joined by “and” are separate entries in the source; they are usually repeats but may differ in a detail not shown here. Equal entries are not always repeated. Where two headings read alike, the source gives them in different places."}
{"smiles": "C1C[S][Bi]([S]CC[S][Bi]2[S]CC[S]2)[S]1", "note": "[BisEDT, Bismuth-1,2-ethanedithiol]", "values": [{"measurement": "AGR", "setting": "dog 2001 Male", "result": "1.9 and 2.0 and 1.8"}, {"measurement": "ALB", "setting": "dog 2001 Male", "result": "3.3 g/dL and 3.4 g/dL and 3.5 g/dL"}, {"measurement": "ALPK", "setting": "dog 2001 Male", "result": "130 IU/L and 140 IU/L and 128 IU/L"}, {"measurement": "ALT", "setting": "dog 2001 Male", "result": 22, "unit": "IU/L"}, {"measurement": "AST", "setting": "dog 2001 Male", "result": "48 IU/L and 36 IU/L"}, {"measurement": "BUN", "setting": "dog 2001 Male", "result": "12 mg/dL and 16 mg/dL and 15 mg/dL"}, {"measurement": "CA2", "setting": "dog 2001 Male", "result": "10.9 mg/dL and 10.8 mg/dL and 11.0 mg/dL"}, {"measurement": "CHOL", "setting": "dog 2001 Male", "result": "168 mg/dL and 167 mg/dL and 152 mg/dL"}, {"measurement": "CREA", "setting": "dog 2001 Male", "result": "0.7 mg/dL and 0.6 mg/dL"}, {"measurement": "Cl", "setting": "dog 2001 Male", "result": "109 mmo/L and 113 mmo/L and 108 mmo/L"}, {"measurement": "GGT", "setting": "dog 2001 Male", "result": 3, "unit": "IU/L"}, {"measurement": "GLOB", "setting": "dog 2001 Male", "result": "1.7 g/dL and 2.0 g/dL"}, {"measurement": "GLUC", "setting": "dog 2001 Male", "result": "91 mg/dL and 97 mg/dL and 102 mg/dL"}, {"measurement": "K", "setting": "dog 2001 Male", "result": "4.5 mmo/L and 4.9 mmo/L and 4.7 mmo/L"}, {"measurement": "Na", "setting": "dog 2001 Male", "result": "149 mmo/L and 147 mmo/L"}, {"measurement": "TBIL", "setting": "dog 2001 Male", "result": 0.15, "unit": "mg/dL"}, {"measurement": "TP", "setting": "dog 2001 Male", "result": "5.0 g/dL and 5.1 g/dL and 5.5 g/dL"}, {"measurement": "TRIG", "setting": "dog 2001 Male", "result": "66 mg/dL and 80 mg/dL and 63 mg/dL"}, {"measurement": "AGR", "setting": "dog 2002 Female", "result": "1.7 and 2.3"}, {"measurement": "ALB", "setting": "dog 2002 Female", "result": "3.3 g/dL and 3.6 g/dL and 3.7 g/dL"}, {"measurement": "ALT", "setting": "dog 2002 Female", "result": "18 IU/L and 29 IU/L and 27 IU/L"}, {"measurement": "AST", "setting": "dog 2002 Female", "result": "35 IU/L and 41 IU/L and 38 IU/L"}, {"measurement": "BUN", "setting": "dog 2002 Female", "result": "13 mg/dL and 14 mg/dL"}, {"measurement": "CA2", "setting": "dog 2002 Female", "result": "10.9 mg/dL and 10.8 mg/dL and 10.6 mg/dL"}, {"measurement": "CHOL", "setting": "dog 2002 Female", "result": "138 mg/dL and 123 mg/dL and 114 mg/dL"}, {"measurement": "CREA", "setting": "dog 2002 Female", "result": 0.6, "unit": "mg/dL"}, {"measurement": "Cl", "setting": "dog 2002 Female", "result": "110 mmo/L and 114 mmo/L and 113 mmo/L"}, {"measurement": "GGT", "setting": "dog 2002 Female", "result": 3, "unit": "IU/L"}, {"measurement": "GLOB", "setting": "dog 2002 Female", "result": "1.9 g/dL and 1.6 g/dL"}, {"measurement": "GLUC", "setting": "dog 2002 Female", "result": "95 mg/dL and 98 mg/dL and 89 mg/dL"}, {"measurement": "K", "setting": "dog 2002 Female", "result": "5.0 mmo/L and 5.2 mmo/L and 4.6 mmo/L"}, {"measurement": "Na", "setting": "dog 2002 Female", "result": "149 mmo/L and 147 mmo/L and 148 mmo/L"}, {"measurement": "TBIL", "setting": "dog 2002 Female", "result": 0.15, "unit": "mg/dL"}, {"measurement": "TP", "setting": "dog 2002 Female", "result": "5.2 g/dL and 5.3 g/dL"}, {"measurement": "TRIG", "setting": "dog 2002 Female", "result": "38 mg/dL and 39 mg/dL and 31 mg/dL"}, {"measurement": "AGR", "setting": "dog 3001 Male", "result": "2.0 and 2.1"}, {"measurement": "ALB", "setting": "dog 3001 Male", "result": "3.2 g/dL and 3.4 g/dL"}, {"measurement": "ALPK", "setting": "dog 3001 Male", "result": "142 IU/L and 135 IU/L and 121 IU/L"}, {"measurement": "ALT", "setting": "dog 3001 Male", "result": "26 IU/L and 24 IU/L and 22 IU/L"}, {"measurement": "AST", "setting": "dog 3001 Male", "result": "30 IU/L and 32 IU/L and 33 IU/L"}, {"measurement": "CA2", "setting": "dog 3001 Male", "result": "10.7 mg/dL and 10.5 mg/dL and 10.0 mg/dL"}, {"measurement": "CHOL", "setting": "dog 3001 Male", "result": "100 mg/dL and 111 mg/dL"}, {"measurement": "CREA", "setting": "dog 3001 Male", "result": "0.6 mg/dL and 0.7 mg/dL and 1.0 mg/dL"}, {"measurement": "Cl", "setting": "dog 3001 Male", "result": "111 mmo/L and 110 mmo/L and 109 mmo/L"}, {"measurement": "GGT", "setting": "dog 3001 Male", "result": 3, "unit": "IU/L"}, {"measurement": "GLOB", "setting": "dog 3001 Male", "result": "1.6 g/dL and 1.7 g/dL"}, {"measurement": "GLUC", "setting": "dog 3001 Male", "result": "100 mg/dL and 88 mg/dL and 51 mg/dL"}, {"measurement": "K", "setting": "dog 3001 Male", "result": "4.7 mmo/L and 5.1 mmo/L and 5.8 mmo/L"}, {"measurement": "Na", "setting": "dog 3001 Male", "result": "146 mmo/L and 148 mmo/L"}, {"measurement": "TBIL", "setting": "dog 3001 Male", "result": 0.15, "unit": "mg/dL"}, {"measurement": "TP", "setting": "dog 3001 Male", "result": "4.8 g/dL and 5.1 g/dL and 5.0 g/dL"}, {"measurement": "TRIG", "setting": "dog 3001 Male", "result": "26 mg/dL and 34 mg/dL and 52 mg/dL"}, {"measurement": "AGR", "setting": "dog 3002 Female", "result": "2.3 and 1.8 and 2.6"}, {"measurement": "ALB", "setting": "dog 3002 Female", "result": "3.5 g/dL and 3.7 g/dL"}, {"measurement": "ALPK", "setting": "dog 3002 Female", "result": "164 IU/L and 90 IU/L and 176 IU/L"}, {"measurement": "ALT", "setting": "dog 3002 Female", "result": "28 IU/L and 20 IU/L"}, {"measurement": "AST", "setting": "dog 3002 Female", "result": "36 IU/L and 28 IU/L and 30 IU/L"}, {"measurement": "CA2", "setting": "dog 3002 Female", "result": "11.2 mg/dL and 10.8 mg/dL and 10.4 mg/dL"}, {"measurement": "CHOL", "setting": "dog 3002 Female", "result": "126 mg/dL and 175 mg/dL and 141 mg/dL"}, {"measurement": "CREA", "setting": "dog 3002 Female", "result": "0.6 mg/dL and 0.5 mg/dL and 0.9 mg/dL"}, {"measurement": "Cl", "setting": "dog 3002 Female", "result": "112 mmo/L and 109 mmo/L and 110 mmo/L"}, {"measurement": "GGT", "setting": "dog 3002 Female", "result": 3, "unit": "IU/L"}, {"measurement": "GLOB", "setting": "dog 3002 Female", "result": "1.5 g/dL and 2.0 g/dL and 1.4 g/dL"}, {"measurement": "GLUC", "setting": "dog 3002 Female", "result": "112 mg/dL and 90 mg/dL and 65 mg/dL"}, {"measurement": "K", "setting": "dog 3002 Female", "result": "5.5 mmo/L and 5.3 mmo/L and 5.9 mmo/L"}, {"measurement": "Na", "setting": "dog 3002 Female", "result": "149 mmo/L and 145 mmo/L"}, {"measurement": "TBIL", "setting": "dog 3002 Female", "result": 0.15, "unit": "mg/dL"}, {"measurement": "TP", "setting": "dog 3002 Female", "result": "5.0 g/dL and 5.5 g/dL and 5.1 g/dL"}, {"measurement": "TRIG", "setting": "dog 3002 Female", "result": "34 mg/dL and 43 mg/dL and 58 mg/dL"}, {"measurement": "AGR", "setting": "dog 4001 Male", "result": "2.3 and 1.8 and 1.9"}, {"measurement": "ALB", "setting": "dog 4001 Male", "result": "3.6 g/dL and 3.4 g/dL and 3.2 g/dL"}, {"measurement": "ALPK", "setting": "dog 4001 Male", "result": "103 IU/L and 114 IU/L and 119 IU/L"}, {"measurement": "ALT", "setting": "dog 4001 Male", "result": "27 IU/L and 28 IU/L"}, {"measurement": "AST", "setting": "dog 4001 Male", "result": "32 IU/L and 39 IU/L and 34 IU/L"}, {"measurement": "BUN", "setting": "dog 4001 Male", "result": "11 mg/dL and 12 mg/dL"}, {"measurement": "CA2", "setting": "dog 4001 Male", "result": "10.8 mg/dL and 10.6 mg/dL and 10.4 mg/dL"}, {"measurement": "CHOL", "setting": "dog 4001 Male", "result": "153 mg/dL and 147 mg/dL and 111 mg/dL"}, {"measurement": "CREA", "setting": "dog 4001 Male", "result": "0.7 mg/dL and 0.6 mg/dL"}, {"measurement": "Cl", "setting": "dog 4001 Male", "result": "120 mmo/L and 116 mmo/L and 113 mmo/L"}, {"measurement": "GGT", "setting": "dog 4001 Male", "result": 3, "unit": "IU/L"}, {"measurement": "GLOB", "setting": "dog 4001 Male", "result": "1.6 g/dL and 1.9 g/dL and 1.7 g/dL"}, {"measurement": "GLUC", "setting": "dog 4001 Male", "result": "102 mg/dL and 82 mg/dL and 86 mg/dL"}, {"measurement": "K", "setting": "dog 4001 Male", "result": "4.7 mmo/L and 4.8 mmo/L"}, {"measurement": "Na", "setting": "dog 4001 Male", "result": "152 mmo/L and 147 mmo/L and 145 mmo/L"}, {"measurement": "TBIL", "setting": "dog 4001 Male", "result": 0.15, "unit": "mg/dL"}, {"measurement": "TP", "setting": "dog 4001 Male", "result": "5.2 g/dL and 5.3 g/dL and 4.9 g/dL"}, {"measurement": "TRIG", "setting": "dog 4001 Male", "result": "49 mg/dL and 46 mg/dL and 40 mg/dL"}, {"measurement": "AGR", "setting": "dog 4002 Female", "result": "1.7 and 1.8"}, {"measurement": "ALB", "setting": "dog 4002 Female", "result": 3.5, "unit": "g/dL"}, {"measurement": "ALPK", "setting": "dog 4002 Female", "result": "147 IU/L and 103 IU/L"}, {"measurement": "ALT", "setting": "dog 4002 Female", "result": "20 IU/L and 21 IU/L"}, {"measurement": "AST", "setting": "dog 4002 Female", "result": "32 IU/L and 35 IU/L"}, {"measurement": "BUN", "setting": "dog 4002 Female", "result": "13 mg/dL and 12 mg/dL"}, {"measurement": "CA2", "setting": "dog 4002 Female", "result": "11.1 mg/dL and 11.2 mg/dL"}, {"measurement": "CHOL", "setting": "dog 4002 Female", "result": "182 mg/dL and 169 mg/dL"}, {"measurement": "CREA", "setting": "dog 4002 Female", "result": "0.6 mg/dL and 0.5 mg/dL"}, {"measurement": "Cl", "setting": "dog 4002 Female", "result": "116 mmo/L and 112 mmo/L"}]}
